# Source: ChEMBL document CHEMBL3046854, “Lupeol-3-O-decanoate, a new triterpene ester from Cadaba farinosa Forssk. growing in Saudi Arabia” (Med Chem Res, 2013)
# Test system: Radical scavenging activity
# Assay: Antioxidant activity assessed as DPPH free radical scavenging activity at 20 uM after 30 min by UV-vis spectrophotometric analysis relative to propyl gallate
# Type: functional
row,Structure (SMILES),Activity [%]
1,NCCCCCCCCCCCC(=O)O,87.1
2,COc1ccc(-c2oc3cc(O)cc(O)c3c(=O)c2O[C@@H]2O[C@H](CO)[C@@H](O)[C@H](O)[C@H]2O)cc1OC,49.1
3,O=c1c(O[C@@H]2O[C@H](CO)[C@@H](O)[C@H](O)[C@H]2O)c(-c2ccc(O)c(O)c2)oc2cc(O)cc(O)c12,71.8
